Several values for one entry are separate records, joined by “and”; a condition that tells them apart may be missing. Identical values can stand only once.
What was measured:
[1] = molecular target: hERG potassium channels (Homo sapiens, UniProt Q12809); test: cell-based
Procedure: Therefore, the concentrations chosen for the definitive hERG assay were 0.1, 0.3, 1, and 3 mM, the detected concentrations of postperfusion solution were 0.101, 0.293, 0.999, and 2.90 mM, respectively.

[2] = 7-day repeat-dose oral toxicokinetics; format: in vivo, Bama minipig; details: for Tmax / Cmax / AUC(0-t): Bama, minipig, plasma; for AUC(0-t): read-out: AUC0-24
Procedure: Toxicokinetics were evaluated as part of a 7-day oral repeat-dose dose range finding study in Bama minipigs. […] On Days 1 and 7, blood was taken for plasma TK at 0 (pre first dose), 0.5, 1, 2, 4, 6 (pre-second dose), 6.5, 7, 8, 10, and 24 hours post-first dose.

[3] = 28-day oral GLP toxicity study with 14-day recovery; details: minipig
Procedure: The purpose of this GLP study was to assess the potential toxicity, reversibility, persistence, or delayed effects of ribitol in minipigs following 28 days of BID oral gavage dosing with a 14 day recovery period. In addition, the plasma TK profile of ribitol was evaluated on Days 1 and 28. Four Bama minipigs/sex/group were administered 0 (vehicle control, purified water), 0.1, 0.3, or 1.0 g/kg/dose ribitol by oral gavage BID (0.2, 0.6, 2.0 g/kg/day; 6 hours apart) for 28 days. In addition, 2 minipigs/sex/group were treated for 28 days with either vehicle (water) or 1.0 g/kg/dose ribitol BID (2.0 g/kg/day) followed by 14-day treatment-free recovery period. In-life assessments included mortality, clinical signs including detailed clinical observations pre-test and once weekly during the dosing and recovery phase, body weight, food consumption, ophthalmology, electrocardiography, and clinical pathology (hematology, coagulation, serum chemistry, and urinalysis). Terminal endpoints included macroscopic pathology, organ weights and histopathology. Blood was taken for plasma TK on Days 1 and 28.

[4] = test system: P448L FKRP mutant mice; test: Efficacy in P448L FKRP mutant mouse model; format: in vivo
Procedure: Glycosylation levels increased from undetectable levels to up to 26% in skeletal muscles with a reduction in disease specific pathology such as central nucleated fibers (diaphragm) and fibrosis (heart).
Ribitol was studied in a P448L FKRP mutant mouse model to assess drug-mediated improvements in matriglycan expression and muscle performance. In one study the mutant mice were treated with doses of 10 g/kg daily by oral gavage or 2.5 g/kg ribitol IV injection weekly for one month.
In a long-term efficacy study the FKRP P448L mutant mice were dosed up to one year by oral gavage. Matriglycan expression was increased as measured by immunohistochemistry and Western Blot analysis after six months of dosing at 2 g/kg, 5 g/kg, and 10 g/kg daily (FIG. 3). […] Diaphragmatic performance was assessed using whole body plethysmography (FIGS. 5A-5F).

[5] = Metabolic stability in liver microsomes, cytosol, hepatocytes; format: in vitro ADME
Procedure: Metabolic stability of ribitol was conducted in liver microsomes, cytosol, and primary hepatocytes, from CD-1 mouse, Sprague-Dawley rat, Gottingen minipig, and human at a concentration of ribitol of 10 μM.

[6] = Plasma protein binding, animals pooled (range); format: in vitro ADME, CD-1 mouse; details: CD-1, Sprague-Dawley, Gottingen, mouse, rat, minipig, animal plasma, 0.49 and 1.31 mM
Procedure: Protein binding studies with ribitol were performed in vitro using plasma from CD-1 mouse, Sprague-Dawley rat, Gottingen minipig, and human at 75 μg/mL (0.49 mM) and 200 μg/mL (1.31 mM) using the rapid equilibrium dialysis method. The percent of ribitol bound to plasma was approximately similar between the two concentrations tested in all species.

[7] = in vivo; design: species or system mouse
[8] = female, po, 0.1 g/kg, 0.1 g/kg BID, Day 1, F
[9] = female, po, 0.1 g/kg, 0.1 g/kg BID, Day 7, F
[10] = female, po, 0.3 g/kg, 0.3 g/kg BID, Day 1, F
[11] = female, po, 0.3 g/kg, 0.3 g/kg BID, Day 7, F
[12] = female, po, 1 g/kg, 1.0 g/kg BID, Day 1, F
[13] = female, po, 1 g/kg, 1.0 g/kg BID, Day 7, F
[14] = male, po, 0.1 g/kg, 0.1 g/kg BID, Day 1, M
[15] = male, po, 0.1 g/kg, 0.1 g/kg BID, Day 7, M
[16] = male, po, 0.3 g/kg, 0.3 g/kg BID, Day 1, M
[17] = male, po, 0.3 g/kg, 0.3 g/kg BID, Day 7, M
[18] = male, po, 1 g/kg, 1.0 g/kg BID, Day 1, M
[19] = male, po, 1 g/kg, 1.0 g/kg BID, Day 7, M
[20] = CD-1, mouse, liver cytosol, Cytosol
[21] = CD-1, mouse, liver microsomes, Microsomes
[22] = CD-1, mouse, primary hepatocytes, Hepatocytes
[23] = Gottingen, minipig, liver cytosol, Cytosol
[24] = Gottingen, minipig, liver microsomes, Microsomes
[25] = Gottingen, minipig, primary hepatocytes, Hepatocytes
[26] = Sprague-Dawley, rat, liver cytosol, Cytosol
[27] = Sprague-Dawley, rat, liver microsomes, Microsomes
[28] = Sprague-Dawley, rat, primary hepatocytes, Hepatocytes
[29] = human, liver microsomes, Microsomes
[30] = human, primary hepatocytes, Hepatocytes

Chain of hERG potassium channels (Q12809 whole entry): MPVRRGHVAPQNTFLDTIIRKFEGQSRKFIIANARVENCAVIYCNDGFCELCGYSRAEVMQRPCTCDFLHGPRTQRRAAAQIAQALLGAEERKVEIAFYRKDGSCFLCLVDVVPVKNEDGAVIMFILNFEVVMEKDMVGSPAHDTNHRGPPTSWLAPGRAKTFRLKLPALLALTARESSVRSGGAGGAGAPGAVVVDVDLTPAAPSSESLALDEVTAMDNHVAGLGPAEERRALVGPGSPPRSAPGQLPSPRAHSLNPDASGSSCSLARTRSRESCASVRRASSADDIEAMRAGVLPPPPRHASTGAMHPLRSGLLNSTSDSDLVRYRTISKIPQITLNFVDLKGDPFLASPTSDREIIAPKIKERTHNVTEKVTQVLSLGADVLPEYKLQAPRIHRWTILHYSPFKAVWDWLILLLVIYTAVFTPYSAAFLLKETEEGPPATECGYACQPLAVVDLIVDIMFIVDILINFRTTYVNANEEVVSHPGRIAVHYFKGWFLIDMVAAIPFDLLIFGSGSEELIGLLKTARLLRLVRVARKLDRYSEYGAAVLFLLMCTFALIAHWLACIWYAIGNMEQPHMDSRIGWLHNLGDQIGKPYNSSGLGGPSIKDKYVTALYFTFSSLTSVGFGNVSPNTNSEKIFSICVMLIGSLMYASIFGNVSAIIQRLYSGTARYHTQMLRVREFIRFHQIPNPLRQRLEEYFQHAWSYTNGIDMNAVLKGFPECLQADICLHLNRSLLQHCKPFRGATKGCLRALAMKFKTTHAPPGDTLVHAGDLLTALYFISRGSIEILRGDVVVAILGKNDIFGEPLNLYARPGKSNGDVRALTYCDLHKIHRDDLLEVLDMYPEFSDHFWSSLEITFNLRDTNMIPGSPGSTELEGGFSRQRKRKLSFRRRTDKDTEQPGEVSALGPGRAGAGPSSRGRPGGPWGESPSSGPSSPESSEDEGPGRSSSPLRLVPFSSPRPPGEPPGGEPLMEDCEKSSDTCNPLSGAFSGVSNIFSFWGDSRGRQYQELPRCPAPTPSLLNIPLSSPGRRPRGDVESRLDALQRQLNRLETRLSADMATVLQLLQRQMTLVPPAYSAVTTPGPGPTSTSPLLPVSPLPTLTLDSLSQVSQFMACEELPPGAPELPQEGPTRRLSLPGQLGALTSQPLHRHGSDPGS

OC[C@@H](O)[C@@H](O)[C@@H](O)CO [ribitol, (2R,3s,4S)-Pentane-1,2,3,4,5-pentol]
IC50 [1]: > 2900 µM | drug accumulation ([2]; 7 days, up to 1.0 g/kg/dose BID): no apparent accumulation | Tmax ([2]; both sexes, oral, post first dose, Days 1 and 7, range): 0.5 to 6.5 h | Cmax [2, 8]: 53.1 µg/mL | Tmax [2, 8]: 3.8 h | AUC(0-t) [2, 8]: 284 µg·h/mL | Cmax [2, 9]: 40.2 µg/mL | Tmax [2, 9]: 0.8 h | AUC(0-t) [2, 9]: 317 µg·h/mL | Cmax [2, 10]: 112 µg/mL | Tmax [2, 10]: 0.8 h | AUC(0-t) [2, 10]: 676 µg·h/mL | Cmax [2, 11]: 159 µg/mL | Tmax [2, 11]: 0.5 h | AUC(0-t) [2, 11]: 784 µg·h/mL | Cmax [2, 12]: 299 µg/mL | Tmax [2, 12]: 1.3 h | AUC(0-t) [2, 12]: 1750 µg·h/mL | Cmax [2, 13]: 331 µg/mL | Tmax [2, 13]: 1.3 h | AUC(0-t) [2, 13]: 1870 µg·h/mL | Cmax [2, 14]: 35.5 µg/mL | Tmax [2, 14]: 3.5 h | AUC(0-t) [2, 14]: 160 µg·h/mL | Cmax [2, 15]: 45.1 µg/mL | Tmax [2, 15]: 3.5 h | AUC(0-t) [2, 15]: 183 µg·h/mL | Cmax [2, 16]: 117 µg/mL | Tmax [2, 16]: 6.5 h | AUC(0-t) [2, 16]: 504 µg·h/mL | Cmax [2, 17]: 58.3 µg/mL | Tmax [2, 17]: 0.5 h | AUC(0-t) [2, 17]: 438 µg·h/mL | Cmax [2, 18]: 308 µg/mL | Tmax [2, 18]: 3.8 h | AUC(0-t) [2, 18]: 169 µg·h/mL | Cmax [2, 19]: 283 µg/mL | Tmax [2, 19]: 1.3 h | AUC(0-t) [2, 19]: 1920 µg·h/mL | NOAEL at 28 days ([3]; both, Bama, in vivo, po): 2000 mg/kg/day | NOAEL ([3]; 28 days oral, both sexes): 1 g/kg/dose BID and 1.0 g/kg/dose BID | treadmill exhaustion running distance and running time ([4]; 2, 5 g/kg/day, 5 g/kg/dose BID, 3.3 g/kg/dose TID): improvements | creatine kinase activity ([4]; 6 months): decreased with increasing doses | increase in running time ([4]; 6 months, 2 g/kg/day): 50-75% | increase in treadmill distance ([4]; 6 months, 2 g/kg/day): 50% | efficacious dose ([4]; FKRP mutant mouse models): 500 mg/kg | glycosylation levels in skeletal muscles ([4]; from undetectable levels): up to 26% | muscle histology ([4]; long-term oral dosing): decreases in fibrosis | levels of ribitol, ribitol-5-phosphate, CDP-ribitol in heart and leg muscles versus untreated mice ([4]; oral or intravenous): up to 4 times | CLint scaled at 10 μM [5, 20]: 4.75 mL/min/kg | half-life at 10 μM [5, 20]: 9.63 h | CLint scaled at 10 μM [5, 21]: < 29.3 mL/min/kg | half-life at 10 μM [5, 21]: > 3.12 h | CLint scaled at 10 μM [5, 22]: < 22.6 mL/min/kg | half-life at 10 μM [5, 22]: > 6.07 h | CLint scaled at 10 μM [5, 23]: 2.71 mL/min/kg | half-life at 10 μM [5, 23]: 3.27 h | CLint scaled at 10 μM [5, 24]: < 5.56 mL/min/kg | half-life at 10 μM [5, 24]: > 3.12 h | CLint scaled at 10 μM [5, 25]: < 9.16 mL/min/kg | half-life at 10 μM [5, 25]: > 6.07 h | CLint scaled at 10 μM [5, 26]: 4.83 mL/min/kg | half-life at 10 μM [5, 26]: 4.3 h | CLint scaled at 10 μM [5, 27]: < 13.3 mL/min/kg | half-life at 10 μM [5, 27]: > 3.12 h | CLint scaled at 10 μM [5, 28]: < 8.89 mL/min/kg | half-life at 10 μM [5, 28]: > 6.07 h | CLint scaled at 10 μM ([5]; human, liver cytosol, Cytosol): 1.64 mL/min/kg | half-life at 10 μM ([5]; human, liver cytosol, Cytosol): 6.35 h | CLint scaled at 10 μM [5, 29]: < 6.66 mL/min/kg | half-life at 10 μM [5, 29]: > 3.12 h | CLint scaled at 10 μM [5, 30]: < 5.28 mL/min/kg | half-life at 10 μM [5, 30]: > 6.07 h | fraction unbound [6]: 0.554 to 0.614 | AUC(0-t) ([7]; CD-1, mouse, po, 0.5 mg/kg/day, AUC(0-24), calculated exposure): 182 µg·h/mL | AUC(0-t) ([7]; CD-1, mouse, po, 2 g/kg/day, AUC(0-24), calculated exposure): 727 µg·h/mL | AUC(0-t) ([7]; female, CD-1, mouse, po, 3 g/kg/day, Steady-state AUC(0-24)): 839 µg·h/mL | AUC(0-t) ([7]; female, mouse, 3 g/kg/day, Steady-state AUC(0-24)): 749 µg·h/mL | AUC(0-t) ([7]; male, CD-1, mouse, po, 3 g/kg/day, Steady-state AUC(0-24)): 1340 µg·h/mL | AUC(0-t) ([7]; male, mouse, 3 g/kg/day, Steady-state AUC(0-24)): 974 µg·h/mL
